# Laboratory results: patent US20150362508A1, “EFFECTOR T CELL RSISTANCE” (BENAROYA RESEARCH INSTITUTE AT VIRGINIA MASON, priority 2013, published 2015)
# System: CD4+CD25− T cells (Teff)
# Assay: CFSE-based polyclonal suppression assay (aTreg:Teff co-culture 1:4, anti-CD3/anti-CD28 beads)
# Type: cell-based, human
# Conditions: for percent inhibition (Treg-mediated suppression of Teff proliferation): presence vs absence of STAT3 inhibitor, 200 ng/ml for one hour
# Method: The level of Teff suppression was measured using an in vitro assay in which the CD4^+CD25^− T cells of patients with RRMS were co-cultured with in vitro generated Treg from healthy subjects at a Treg to Teff ratio of 1:4 in the presence of anti-CD3/anti-CD28 coated beads and where proliferation is measured using CFSE.
# FIGS. 5A, 5B, and 5C relate to a gating strategy for calculation of percent inhibition in a suppression assay and a cytometric analysis of phosphorylated STAT3 and IL-6Rα surface expression. Referring to FIG. 5A, FACS analysis was performed on day 4 by gating on live cells and excluding the CFSE low population (unstained Treg) to determine the percent of the responder cells that have diluted CFSE. The percent inhibition was determined by comparing the percent of proliferating Teff cells cultured alone to the percent of proliferating Teff cells in co-culture with in vitro generated Treg at a ratio 1:4 (Treg:responder cells).
# IL-6 mediated Teff resistance can be reversed through the use of a STAT3 inhibitor (Goodman, W. A., et al., J. Immunol. 186(6), 3336-3345 (2011)). […] Suppression assays were performed in the presence of the STAT3 inhibitor using the same source of control Treg for RRMS and control Teff cells. In FIG. 2D, the percent inhibition for controls (n=3) and RRMS (n=3) subjects in the presence or absence of a STAT3 inhibitor, STATTIC V, was compared using a paired Student t-test.
# To determine whether IL-6R mediated signaling could alter suppression in the assay system, Teff were cultured from healthy subjects in the presence or absence of IL-6 in the in vitro co-culture system and assessed percent inhibition on day 4. […] Referring to FIG. 11, CFSE-labeled CD4^+CD25^− T cells were cultured at a ratio of 1:4 (control aTreg:control Teff) either in the absence or presence of 50 ng/ml IL-6 and activated with anti-CD3/anti-CD28 coated beads. FACS analysis was performed to determine percent inhibition on day 4 and data is represented by using a paired analysis (Correlation coefficient (r) 0.8934).
# CD4^+CD25^− responder cells were isolated as described above via negative selection using Miltenyi microbeads. Allogeneic CD4^+CD25^− T cells were carboxyfluorescein succinimidyl ester (CFSE)-labelled and cultured at a ratio of 1:4 with aTregs and Dynabeads® (M-450 CD3/CD28 T, Dynal Biotech A.S.A./Life Technologies Corporation, Grand Island, N.Y.) at a ratio of 1:5 (beads:responder cells) as described previously (Schneider, A., and Buckner, J. H., Methods Mol. Biol. 707, 233-241 (2011)). […] Data was acquired using CellQuest™ Pro software (BD Bioscience) and analyzed by FlowJo (Tree Star).
Molecule,"percent inhibition (Treg-mediated suppression of Teff proliferation) (RRMS subjects' Teff (n=3), day 4, p<0.01, FIG. 2D)","percent inhibition (Treg-mediated suppression of Teff proliferation) (control subjects' Teff (n=3), day 4, FIG. 2D)","suppression by Treg (percent inhibition) (control aTreg:control Teff 1:4, absence vs presence of 50 ng/ml IL-6, day 4, p=0.02, FIG. 11)","proliferation of Teff (cultures with Teff alone, healthy subjects, absence vs presence of 50 ng/ml IL-6)"
O=[N+]([O-])c1ccc2c(c1)S(=O)(=O)C=C2 [STATTIC V],more marked increase in suppression,enhanced suppression,,
"IL-6: recombinant human IL-6 from BD Pharmingen, pro-inflammatory cytokine",,,significantly decreased,unaffected
